Laboratory results reported in paper PMC11377542, “An artificial intelligence accelerated virtual screening platform for drug discovery” (Nature Communications, 2024).
Where “and” joins values, the source holds several entries; their conditions need not be identical. Identical values can stand only once. Like-named read-outs stand apart in the source and are kept apart here.

What was measured:
KLHDC2 [1] = biological target: T1, KLHDC2 (Homo sapiens, UniProt Q9Y2U9); experiment: Octet BioLayer Interferometry competition assay (biotinylated SelK peptide / GST-KLHDC2); assay type: binding; conditions: BLI competition, C29 at 0-30 µM, 50 nM GST-KLHDC2
T1 construct: human KLHDC2 (UniProt: Q9Y2U9, amino acid 1–362); made in house; host or cells: HighFive insect cells (baculovirus, pFastBac)
T1 sequence (Q9Y2U9 1-362): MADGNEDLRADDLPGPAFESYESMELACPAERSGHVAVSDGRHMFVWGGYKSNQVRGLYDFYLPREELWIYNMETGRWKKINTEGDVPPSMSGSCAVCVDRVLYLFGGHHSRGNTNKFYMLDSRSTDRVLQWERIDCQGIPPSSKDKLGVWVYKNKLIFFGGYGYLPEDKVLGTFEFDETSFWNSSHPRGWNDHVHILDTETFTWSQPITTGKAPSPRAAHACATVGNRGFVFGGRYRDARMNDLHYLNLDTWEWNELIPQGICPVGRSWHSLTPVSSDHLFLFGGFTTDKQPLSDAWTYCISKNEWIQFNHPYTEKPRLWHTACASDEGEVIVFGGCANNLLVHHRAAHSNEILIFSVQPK
Experimental: Octet BioLayer interferometry competition assay monitoring the ability of C29 to interfere with the binding between the biotinylated 12 aa SelK peptide and GST-KLHDC2 was monitored using the Octet Red 96 (ForteBio, Pall Life Sciences) following the manufacturer’s procedures. The reaction was carried out in black 96 well plates maintained at 30 °C. The reaction volume was 200 μL in each well. The Octet buffer used throughout the experiment contained 20 mM Tris-HCl, 200 mM NaCl, 5 mM DTT and 0.1% BSA, pH 8.0. The Loading buffer contained the Octet buffer and biotinylated 12 aa SelK peptide, at a final concentration of 200 nM. […] The binding of the analyte GST-KLHDC2 in the presence or absence of the C29, to the optical probes was measured simultaneously using instrumental defaults for 225 sec as the probes were then incubated in Association buffer. The dissociation was measured for 600 sec while the probes were incubated in Octet buffer. […] The data were analyzed by the Octet data analysis software version 9.0.. […] The IC50 value was calculated using Prism 8 (GraphPad) from the nonlinear regression curve fit of the response values vs. log competitor concentration.
Supplementary Fig. 14 | BioLayer Interferometry competition assay of compound 29. […] The binding of the analyte GST-KLHDC2 in the presence or absence of the C29, to the loaded optical probes was measured in the association buffer. […]

KLHDC2 [2] = biological target: T1, KLHDC2; experiment: AlphaLISA competition assay (displacement of SelK C-end degron peptide from GST-KLHDC2); assay type: binding; conditions: IC50, competition with biotinylated 12 aa SelK degron peptide; 12-point titration, n = 3 technical replicates
From the text: We took the top-ranked 1000 compounds and filtered out compounds with low predicted solubility, unsatisfied hydrogen bonds in the bound conformation, and followed by similarity clustering to reduce the redundancy in ligand structures. A total of 54 molecules that passed the filtering and clustering were manually examined for favorable interactions and geometries in PyMol[34]. Finally, 37 compounds were chosen for chemical synthesis. Out of these, 29 compounds were successfully synthesized (Supplementary Fig. 13) and characterized in an AlphaLISA competition assay, in which each compound was tested for its ability to compete with a diglycine-containing SelK C-end degron peptide for binding KLHDC2. […] This single digit μM IC50 was further confirmed in a competition assay using BioLayer Interferometry (Supplementary Fig. 14).
The kelch repeat domain of human KLHDC2 (UniProt: Q9Y2U9, amino acid 1–362) was subcloned into the pFastBac vector with an N-terminally fused glutathione-S-transferase (GST), and a TEV-cleavage site. A recombinant baculovirus was produced and amplified three times in Sf9 monolayer cells to produce P4. The P4 virus was used to infect HighFive suspension insect cell cultures to produce the recombinant GST-KLHDC2 protein. The cells were harvested 2–3 days post-infection, re-suspended, and lysed in lysis buffer (20 mM Tris, pH 8.0, 200 mM NaCl, 5 mM DTT) in the presence of protease inhibitors (1 μg/ml Leupeptin, 1 μg/ml Pepstatin and 100 μM PMSF) using a microfluidizer. The GST-KLHDC2 protein was isolated from the soluble cell lysate by PierceTM Glutathione Agarose (Thermo Scientific). For AlphaLISA competition assays, the GST-tagged KLHDC2 was further purified by Q Sepharose High-Performance resin (GE Healthcare). The NaCl eluates were subjected to a Superdex-200 size exclusion chromatography column (GE Healthcare). All samples were flash-frozen in liquid nitrogen for storage prior to use. For protein crystallization, the kelch repeat domain of human KLHDC2 (amino acids 22–362) was subcloned into the pET vector with an N-terminally fused His-elongation factor Ts (TSF) and a TEV-cleavage site. The His-TSF-KLHDC2 protein was overexpressed and purified from BL21 (DE3) E. coli cells. Bacterial cells transformed with the pET-based expression plasmid were grown in LB broth to an OD600 of 0.8–1 and induced with 0.5 mM IPTG. Cells were harvested, re-suspended, and lysed in lysis buffer (20 mM Tris, pH 8.0, 200 mM NaCl, 20 mM imidazole) in the presence of protease inhibitors (1 μg mL–1 leupeptin, 1 μg mL–1 pepstatin and 100 μM phenylmethylsulfonyl fluoride) using a microfluidizer. The His-TSF-KLHDC2 protein was isolated from the soluble cell lysate by HisPurTM Ni-NTA Superflow Agarose (Thermo Fisher Scientific, Waltham, Massachusetts). After TEV cleavage of the His-TSF, KLHDC2 was further purified by Mono Q™ 5/50 GL (GE Healthcare, Chicago, Illinois). The NaCl eluates were subjected to Superdex-200 size-exclusion chromatography (GE Healthcare). Native mass spectrometry was used to confirm KLHDC2 in its apo form. The samples were concentrated by ultrafiltration to 10–22 mg mL−1. All samples were flash-frozen in liquid nitrogen for storage prior to use.
AlphaLISA assays for determining and measuring protein-protein interactions were performed using an EnSpire reader (PerkinElmer). GST-tagged KLHDC2 was attached to anti-GST AlphaLISA acceptor beads. Synthetic N-terminal biotinylated 12 aa SelK degron peptide ([Biotin]HLRGSPPPMAGG[C) (Bio-Synthesis, Inc.) was immobilized to streptavidin-coated AlphaLISA donor beads. The donor and acceptor beads were brought into proximity by the interactions between the SelK peptide and KLHDC2. Excitation of the donor beads by a laser beam of 680 nm promotes the formation of singlet oxygen. When an acceptor bead is in close proximity, the singlet oxygen reacts with thioxene derivatives in the acceptor beads and causes the emission of 615 nm photons, which are detected as the binding signal. […]

HERG (hKv11.1) = biological target: T2, HERG (hKv11.1) (Homo sapiens, UniProt Q12809); experiment: Whole-cell patch-clamp electrophysiology on HEK293 cells stably expressing HERG, tail current; assay type: cell-based; conditions: mean
T2 construct: expressed in transfected cells
T2 sequence (Q12809 whole entry): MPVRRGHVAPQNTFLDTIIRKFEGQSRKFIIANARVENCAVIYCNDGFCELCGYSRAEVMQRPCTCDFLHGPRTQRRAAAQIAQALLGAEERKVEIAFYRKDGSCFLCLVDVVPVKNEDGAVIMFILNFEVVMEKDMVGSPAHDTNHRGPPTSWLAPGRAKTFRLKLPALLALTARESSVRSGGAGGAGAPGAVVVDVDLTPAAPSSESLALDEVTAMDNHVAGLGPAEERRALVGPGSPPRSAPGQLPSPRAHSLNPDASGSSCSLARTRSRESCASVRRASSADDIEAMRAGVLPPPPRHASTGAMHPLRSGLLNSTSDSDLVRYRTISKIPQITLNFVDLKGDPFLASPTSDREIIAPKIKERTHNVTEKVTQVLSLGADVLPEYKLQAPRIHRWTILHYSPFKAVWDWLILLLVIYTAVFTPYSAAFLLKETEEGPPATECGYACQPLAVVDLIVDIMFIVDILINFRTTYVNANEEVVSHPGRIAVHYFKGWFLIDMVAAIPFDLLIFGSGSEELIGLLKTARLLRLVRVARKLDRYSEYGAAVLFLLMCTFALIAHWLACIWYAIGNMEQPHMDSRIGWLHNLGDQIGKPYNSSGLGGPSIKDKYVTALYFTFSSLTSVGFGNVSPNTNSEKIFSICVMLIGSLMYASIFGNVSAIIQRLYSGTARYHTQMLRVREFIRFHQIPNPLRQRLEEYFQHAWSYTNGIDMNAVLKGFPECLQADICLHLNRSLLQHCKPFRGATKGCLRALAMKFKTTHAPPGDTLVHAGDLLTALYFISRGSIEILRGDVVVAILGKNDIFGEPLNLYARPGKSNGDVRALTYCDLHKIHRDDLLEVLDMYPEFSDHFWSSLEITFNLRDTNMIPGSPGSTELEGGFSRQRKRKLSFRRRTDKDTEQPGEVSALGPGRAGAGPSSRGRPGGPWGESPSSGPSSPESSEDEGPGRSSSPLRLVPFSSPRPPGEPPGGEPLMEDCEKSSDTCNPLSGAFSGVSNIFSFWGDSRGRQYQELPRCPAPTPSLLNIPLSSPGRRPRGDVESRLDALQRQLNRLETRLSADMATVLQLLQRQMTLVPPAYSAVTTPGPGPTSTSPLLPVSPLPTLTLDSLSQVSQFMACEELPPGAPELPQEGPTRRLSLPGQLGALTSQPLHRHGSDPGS
Experimental: (§1) HEK-293 cells stably expressing human NaV1.5 and NaV1.7 were obtained from Dr. Chris Lossin (UC Davis, CA). HEK293 cells stably expressing HERG (hKv11.1) were a gift from Craig January (University of Wisconsin, Madison). Cells were cultured in complete DMEM supplemented with 10% FBS, 1% penicillin/streptomycin, and G418. All manual whole-cell patch-clamp recordings were performed at room temperature (22–24 °C) using an EPC-10 amplifier (HEKA Electronik, Lambrecht/Pfalz, Germany) on cells that were grown to 60–80% confluency, lifted with TrypLE, and plated onto poly-l-lysine–coated coverslips. External bath solution contains (in mM) 160 NaCl, 4.5 KCl, 2 CaCl2, 1 MgCl2, 10 HEPES (pH 7.4 and 305 mOsm) as. Patch pipettes were heat-pulled from soda lime glass (micro-hematocrit tubes, Kimble Chase, Rochester, NY) and had resistances of 2–3 MΩ when filled with an internal solution. […] Inhibition of currents in the resting state was recorded using a holding potential of − 120 mV. Control test currents were monitored for up to 5–10 min to ensure that the amplitude and kinetics of the response were stable. […] The percent reduction of HERG tail current amplitude by the compounds was determined. The percent of a block of tail current amplitude by the drugs was determined and data are shown as mean +/− SD (n = 3–4 per data point).

hNaV1.7 channel = biological target: T3, hNaV1.7 channel (Homo sapiens, UniProt Q15858); experiment: Whole-cell patch-clamp electrophysiology on hNaV1.7 stably expressed in HEK-293 cells; assay type: cell-based; conditions: for IC50: mean
T3 construct: expressed in transfected cells
T3 sequence (Q15858 whole entry): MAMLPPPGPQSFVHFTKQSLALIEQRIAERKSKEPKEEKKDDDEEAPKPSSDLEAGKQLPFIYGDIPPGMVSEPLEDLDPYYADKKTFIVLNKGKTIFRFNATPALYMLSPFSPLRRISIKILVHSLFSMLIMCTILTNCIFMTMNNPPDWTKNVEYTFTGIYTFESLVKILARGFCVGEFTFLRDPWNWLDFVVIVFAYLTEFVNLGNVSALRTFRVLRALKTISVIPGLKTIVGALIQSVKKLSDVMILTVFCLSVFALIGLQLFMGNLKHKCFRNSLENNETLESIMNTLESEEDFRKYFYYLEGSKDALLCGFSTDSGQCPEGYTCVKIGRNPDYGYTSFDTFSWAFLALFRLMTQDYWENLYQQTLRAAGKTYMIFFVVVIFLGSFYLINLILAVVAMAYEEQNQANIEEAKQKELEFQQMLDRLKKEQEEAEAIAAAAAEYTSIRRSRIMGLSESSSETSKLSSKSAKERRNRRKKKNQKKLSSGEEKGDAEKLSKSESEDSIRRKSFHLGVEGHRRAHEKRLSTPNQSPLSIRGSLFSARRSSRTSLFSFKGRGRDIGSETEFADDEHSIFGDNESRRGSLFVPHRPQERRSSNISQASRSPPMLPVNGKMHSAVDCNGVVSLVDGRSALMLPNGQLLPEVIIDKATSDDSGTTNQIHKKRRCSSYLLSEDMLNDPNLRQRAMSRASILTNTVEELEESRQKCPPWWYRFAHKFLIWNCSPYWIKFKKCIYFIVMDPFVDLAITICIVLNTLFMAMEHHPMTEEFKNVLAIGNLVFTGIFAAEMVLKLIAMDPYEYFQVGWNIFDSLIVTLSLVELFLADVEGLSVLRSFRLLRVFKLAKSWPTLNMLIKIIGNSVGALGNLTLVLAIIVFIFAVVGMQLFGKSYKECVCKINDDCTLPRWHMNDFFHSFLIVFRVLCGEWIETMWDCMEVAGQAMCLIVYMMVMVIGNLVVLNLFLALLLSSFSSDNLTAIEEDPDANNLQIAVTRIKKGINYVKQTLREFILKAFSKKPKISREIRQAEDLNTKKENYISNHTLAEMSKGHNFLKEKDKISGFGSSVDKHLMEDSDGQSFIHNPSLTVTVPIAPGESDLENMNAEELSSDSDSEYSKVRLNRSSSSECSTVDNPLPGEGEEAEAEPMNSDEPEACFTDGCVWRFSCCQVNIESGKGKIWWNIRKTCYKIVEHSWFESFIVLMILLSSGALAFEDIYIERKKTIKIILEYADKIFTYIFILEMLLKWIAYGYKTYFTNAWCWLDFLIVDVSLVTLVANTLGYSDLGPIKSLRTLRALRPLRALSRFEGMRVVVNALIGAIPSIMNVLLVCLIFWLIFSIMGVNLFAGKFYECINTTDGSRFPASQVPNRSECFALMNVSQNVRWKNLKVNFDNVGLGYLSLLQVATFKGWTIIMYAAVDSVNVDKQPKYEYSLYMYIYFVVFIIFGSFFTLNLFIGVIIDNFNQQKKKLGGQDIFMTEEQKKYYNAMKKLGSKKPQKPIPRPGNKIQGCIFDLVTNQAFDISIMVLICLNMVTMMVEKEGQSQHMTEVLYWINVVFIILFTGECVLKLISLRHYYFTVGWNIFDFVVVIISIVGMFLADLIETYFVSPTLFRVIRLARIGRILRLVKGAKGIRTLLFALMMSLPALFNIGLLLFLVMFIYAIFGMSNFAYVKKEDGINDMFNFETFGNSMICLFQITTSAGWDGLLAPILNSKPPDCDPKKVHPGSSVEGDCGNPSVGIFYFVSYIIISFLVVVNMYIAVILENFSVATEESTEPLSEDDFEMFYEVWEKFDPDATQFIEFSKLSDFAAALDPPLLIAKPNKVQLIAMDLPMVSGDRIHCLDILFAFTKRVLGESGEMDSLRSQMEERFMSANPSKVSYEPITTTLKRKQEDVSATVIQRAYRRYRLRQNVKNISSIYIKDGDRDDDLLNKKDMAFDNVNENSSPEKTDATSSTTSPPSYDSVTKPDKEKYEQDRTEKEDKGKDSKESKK
From the text: We first clustered the top 100,000 ranked small molecules, then applied filters on the top 1000 cluster representative molecules. A total of 160 molecules that passed the clustering and filtering were examined manually. To ensure the chemical novelty of our selection, we specifically excluded molecules that contain the known arylsulfonamide warhead or structurally resemble antihistamines or beta-receptor blockers. Finally, ten molecules with Tanimoto similarities of less than 0.33 to the known inhibitors of NaV1.7 from the ChEMBL database[43],[44] were selected for synthesis. Of these, nine were successfully synthesized (Supplementary Fig. 16), and their activities were measured using the whole-cell patch-clamp electrophysiology assay on hNaV1.7 channel stably expressed in HEK-293 cells as described in Methods.
HEK-293 cells stably expressing human NaV1.5 and NaV1.7 were obtained from Dr. Chris Lossin (UC Davis, CA). HEK293 cells stably expressing HERG (hKv11.1) were a gift from Craig January (University of Wisconsin, Madison). Cells were cultured in complete DMEM supplemented with 10% FBS, 1% penicillin/streptomycin, and G418. All manual whole-cell patch-clamp recordings were performed at room temperature (22–24 °C) using an EPC-10 amplifier (HEKA Electronik, Lambrecht/Pfalz, Germany) on cells that were grown to 60–80% confluency, lifted with TrypLE, and plated onto poly-l-lysine–coated coverslips. External bath solution contains (in mM) 160 NaCl, 4.5 KCl, 2 CaCl2, 1 MgCl2, 10 HEPES (pH 7.4 and 305 mOsm) as. Patch pipettes were heat-pulled from soda lime glass (micro-hematocrit tubes, Kimble Chase, Rochester, NY) and had resistances of 2–3 MΩ when filled with an internal solution. Patch recordings of NaV1.5 and NaV1.7 channels were done using a cesium fluoride-based internal solution containing (in mM) 10 NaF, 110 CsF, 20 CsCl, 10 HEPES, 2 EGTA, (pH 7.4, 310 mOsm). Recordings of HERG channels were conducted using a potassium fluoride-based internal solution with added ATP (160 mM KF, 2 mM MgCl2, 10 mM EGTA, 10 mM HEPES, 4 mM NaATP, pH = 7.2 and 300–320 mOsm). Data acquisition and analysis were performed with Pulse-PulseFit (HEKA Electronik GmbH, Germany), IgorPro (WaveMetrics, Portland, OR), and Origin 9.0 software (OriginLab Corporation, Northampton, MA). To investigate specifically the inactivated state block of NaV1.7 and NaV1.5, holding potentials were set at the V1/2 of maximal inactivation (− 70 mV and − 80 mV, respectively) before voltage stepping to − 150 mV for 20 msec, and then 0 mV for 50 msec to elicit inward currents. Inhibition of currents in the resting state was recorded using a holding potential of − 120 mV. Control test currents were monitored for up to 5–10 min to ensure that the amplitude and kinetics of the response were stable. Series resistance was compensated to 80–90% and linear leak currents and capacitance artifacts were corrected using a P/4 subtraction method. The pulse interval was 0.1 Hz. For all experiments, stock solutions of the drugs were prepared fresh from 10 mM stocks in DMSO and test solutions prepared in external bath solutions were applied to individual cells into the recording bath. […] The percent reduction of HERG tail current amplitude by the compounds was determined. The percent of a block of tail current amplitude by the drugs was determined and data are shown as mean +/− SD (n = 3–4 per data point).

human NaV1.5 = biological target: T4, human NaV1.5 (Homo sapiens, UniProt Q14524); experiment: Whole-cell patch-clamp electrophysiology on human NaV1.5 stably expressed in HEK-293 cells; assay type: cell-based; conditions: -80 mV holding potential (inactivated state); mean
T4 construct: expressed in transfected cells
T4 sequence (Q14524 whole entry): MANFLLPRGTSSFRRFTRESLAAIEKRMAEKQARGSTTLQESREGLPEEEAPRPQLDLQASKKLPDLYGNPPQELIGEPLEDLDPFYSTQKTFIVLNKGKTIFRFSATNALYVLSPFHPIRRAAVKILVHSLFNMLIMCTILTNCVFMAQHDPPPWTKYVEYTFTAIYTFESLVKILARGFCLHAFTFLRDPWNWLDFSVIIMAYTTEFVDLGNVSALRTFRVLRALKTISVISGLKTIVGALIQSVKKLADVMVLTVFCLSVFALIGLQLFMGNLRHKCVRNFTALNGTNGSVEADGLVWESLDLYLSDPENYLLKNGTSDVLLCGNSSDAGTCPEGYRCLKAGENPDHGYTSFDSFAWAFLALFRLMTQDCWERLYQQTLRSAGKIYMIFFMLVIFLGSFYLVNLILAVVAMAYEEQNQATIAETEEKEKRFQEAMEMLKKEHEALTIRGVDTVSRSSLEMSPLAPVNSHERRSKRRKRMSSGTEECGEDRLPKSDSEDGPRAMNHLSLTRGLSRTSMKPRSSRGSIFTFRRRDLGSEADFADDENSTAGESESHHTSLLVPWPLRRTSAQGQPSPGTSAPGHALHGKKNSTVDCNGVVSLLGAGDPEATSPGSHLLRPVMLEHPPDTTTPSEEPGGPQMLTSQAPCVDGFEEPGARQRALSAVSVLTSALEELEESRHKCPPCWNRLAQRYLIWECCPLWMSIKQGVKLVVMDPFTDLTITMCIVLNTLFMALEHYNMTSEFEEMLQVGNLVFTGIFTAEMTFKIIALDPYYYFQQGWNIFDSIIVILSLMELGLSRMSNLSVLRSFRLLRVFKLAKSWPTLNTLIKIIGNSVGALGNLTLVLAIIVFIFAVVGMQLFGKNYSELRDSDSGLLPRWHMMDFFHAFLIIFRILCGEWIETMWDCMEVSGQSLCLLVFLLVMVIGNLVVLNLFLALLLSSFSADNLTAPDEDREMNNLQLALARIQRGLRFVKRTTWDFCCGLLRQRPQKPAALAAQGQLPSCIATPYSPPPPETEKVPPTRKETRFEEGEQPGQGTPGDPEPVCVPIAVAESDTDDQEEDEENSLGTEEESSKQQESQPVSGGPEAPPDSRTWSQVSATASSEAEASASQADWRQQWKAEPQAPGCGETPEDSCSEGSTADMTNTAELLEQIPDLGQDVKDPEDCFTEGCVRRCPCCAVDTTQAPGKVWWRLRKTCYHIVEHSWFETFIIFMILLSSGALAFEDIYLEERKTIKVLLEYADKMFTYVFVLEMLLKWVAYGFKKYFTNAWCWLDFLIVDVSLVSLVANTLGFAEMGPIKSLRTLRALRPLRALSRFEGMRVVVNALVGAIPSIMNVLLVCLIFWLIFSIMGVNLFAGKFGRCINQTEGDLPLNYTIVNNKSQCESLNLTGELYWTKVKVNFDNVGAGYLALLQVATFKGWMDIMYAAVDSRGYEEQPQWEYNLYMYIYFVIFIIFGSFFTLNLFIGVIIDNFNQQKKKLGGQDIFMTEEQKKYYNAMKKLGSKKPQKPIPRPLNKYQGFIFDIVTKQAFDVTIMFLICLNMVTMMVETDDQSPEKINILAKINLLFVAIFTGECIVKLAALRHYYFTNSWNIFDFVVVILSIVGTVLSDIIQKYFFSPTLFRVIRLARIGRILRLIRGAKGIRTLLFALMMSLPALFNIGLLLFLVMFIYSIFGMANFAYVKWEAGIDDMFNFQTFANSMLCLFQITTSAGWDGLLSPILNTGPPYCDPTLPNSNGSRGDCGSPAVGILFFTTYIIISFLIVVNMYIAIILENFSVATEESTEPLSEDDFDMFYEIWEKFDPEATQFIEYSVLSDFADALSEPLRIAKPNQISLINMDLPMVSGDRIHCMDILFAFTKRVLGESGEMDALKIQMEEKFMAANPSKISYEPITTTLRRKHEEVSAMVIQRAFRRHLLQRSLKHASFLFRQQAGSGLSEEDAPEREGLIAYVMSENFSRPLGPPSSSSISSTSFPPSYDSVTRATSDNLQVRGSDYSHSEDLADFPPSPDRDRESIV
Experimental: as §1

CC(C)(C)c1ccc(CSCC(=O)NCc2cn(CC(=O)O)nn2)cc1 [Compound C29]
IC50 (KLHDC2 [1]): single digit | IC50 (KLHDC2 [2]): ~3 µM and 2.9 µM

Cc1cc(C(C)(C)C)ccc1OCC(O)CNCc1cc(C)c(C)s1 (centres unmarked) [Compound Z8739902234, CC=1C=C(CNCC(O)COC=2C=CC(=CC2C)C(C)(C)C)SC1C]
IC50 (HERG (hKv11.1)): 6.27 µM | IC50 (hNaV1.7 channel; NaV1.7 inactivated state, -70 mV holding potential, read-out: inactivated-state IC50): 1.33 µM and 1.3 µM | IC50 (hNaV1.7 channel; NaV1.7 resting state, -120 mV holding potential, read-out: resting state IC50): 13.1 µM | selectivity for hNaV1.7 versus hNaV1.5 and hERG channels (hNaV1.7 channel; in words): moderate selectivity | state dependence of NaV1.7 inhibition (hNaV1.7 channel; inactivated versus resting state, in words): state dependent | IC50 (human NaV1.5): 5.14 µM
